Measurements as given in BigSolDB 2.1.

Details: in acetic acid

Compound: CO[C@H]1/C=C/O[C@@]2(C)Oc3c(C)c(O)c4c(O)c(c(/C=N/N5CCN(C6CCCC6)CC5)c(O)c4c3C2=O)NC(=O)/C(C)=C\C=C\[C@H](C)[C@H](O)[C@@H](C)[C@@H](O)[C@@H](C)[C@H](OC(C)=O)[C@@H]1C
- solubility (mole fraction) (278.15 K): 0.0523
- solubility (mole fraction) (283.15 K): 0.0558
- solubility (mole fraction) (288.15 K): 0.0595
- solubility (mole fraction) (293.15 K): 0.0632
- solubility (mole fraction) (297.15 K): 0.067
- solubility (mole fraction) (303.15 K): 0.0707
- solubility (mole fraction) (308.15 K): 0.0755
- solubility (mole fraction) (313.15 K): 0.0805
- solubility (mole fraction) (318.15 K): 0.0858
- solubility (mole fraction) (323.15 K): 0.0913
